Experimental findings from patent US8772307B2, “Substituted spiro compounds and their use for producing pain-relief medicaments” (Gruenenthal GmbH, priority 2005, dated 2014) are described below.

Test [1] deals with T1, rat-species vanilloid receptor 1 (VR1/TRPV1) (Rattus norvegicus, UniProt O35433).
T1 construct: endogenous in cells; host or cells: primary cells dissociated from rat dorsal root ganglia (DRG)
In words: Functional testing on vanilloid receptor 1 (VR1/TRPV1): FLIPR Ca2+ inflow assay in rat dorsal root ganglia cells (% activation / % inhibition vs capsaicin). In kind it is cell-based. The settings on record: for inhibition at 10 µM: inhibition compared to 10 μM CP (capsaicin); for activation at 10 µM: stimulation compared to 10 μM CP (capsaicin); for IC50: capsaicin (CAP) stimulus, average. On the procedure:
Preference may also be given to substituted spiro compounds according to the invention of general formula I which in a FLIPR assay in a concentration of 10 μM display inhibition of the Ca^2+ ion inflow in dorsal root ganglia of rats of at least 30%, preferably of at least 40%, particularly preferably of at least 50%, most particularly preferably of at least 70%, even more preferably of at least 90%, compared to the maximum achievable inhibition of the Ca^2+ ion inflow with capsaicin in a concentration of 10 μM.
In the FLIPR assay, the Ca^2+ inflow is quantified using a Ca^2+-sensitive dye (type Fluo-4, Molecular Probes Europe BV, Leiden, Netherlands) in a fluorescent imaging plate reader (FLIPR, Molecular Devices, Sunnyvale, USA), as described hereinafter.
I. Functional Testing Carried Out on the Vanilloid Receptor 1 (VR1/TRPV1 Receptor)
The agonistic or antagonistic effect of the substances to be tested can be determined on the rat-species vanilloid receptor 1 (VR1/TRPV1) using the following assay. According to this assay, the Ca^2+ inflow is quantified through the receptor channel using a Ca^2+-sensitive dye (type Fluo-4, Molecular Probes Europe BV, Leiden, Netherlands) in a fluorescent imaging plate reader (FLIPR, Molecular Devices, Sunnyvale, USA).
Complete medium: 50 mL HAMS F12 nutrient mixture (Gibco Invitrogen GmbH, Karlsruhe, Germany) with
10% by volume of FCS (foetal calf serum, Gibco Invitrogen GmbH, Karlsruhe, Germany, […]);
2 mM L-glutamine (Sigma, Munich, Germany);
1% by weight of AA solution (antibiotic/antimyotic solution, PAA, Pasching, Austria)
and 25 ng/ml NGF medium (2.5 S, Gibco Invitrogen GmbH, Karlsruhe, Germany)
Cell culture plate: Poly-D-lysine-coated, black 96 well plates having a clear base (96 well black/clear plate, BD Biosciences, Heidelberg, Germany) were additionally coated with laminin (Gibco Invitrogen GmbH, Karlsruhe, Germany), the laminin being diluted with PBS (Ca—Mg-free PBS, Gibco Invitrogen GmbH, Karlsruhe, Germany) to a concentration of 100 μg/mL. Aliquots having a laminin concentration of 100 μg/mL were removed and stored at −20° C. The aliquots were diluted with PBS in a ratio of 1:10 to 10 μg/mL laminin and in each case 50 μL of the solution were pipetted into a recess in the cell culture plate. The cell culture plates were incubated for at least two hours at 37° C., the excess solution was removed by suction-filtration and the recesses were each washed twice with PBS. The coated cell culture plates were stored with excess PBS which was not removed until just before the feeding of the cells.
Preparation of the Cells:
The vertebral column was removed from decapitated rats and placed immediately into cold HBSS buffer (Hank's buffered saline solution, Gibco Invitrogen GmbH, Karlsruhe, Germany), i.e. buffer located in an ice bath, mixed with 1% by volume (percent by volume) of an AA solution (antibiotic/antimyotic solution, PAA, Pasching, Austria). The vertebral column was cut longitudinally and removed together with fasciae from the vertebral canal. Subsequently, the dorsal root ganglia (DRG) were removed and again stored in cold HBSS buffer mixed with 1% by volume of an AA solution. The DRG, from which all blood remnants and spinal nerves had been removed, were transferred in each case to 500 μL of cold type 2 collagenase (PAA, Pasching, Austria) and incubated for 35 minutes at 37° C. After the addition of 2.5% by volume of trypsin (PAA, Pasching, Austria), incubation was continued for 10 minutes at 37° C. After complete incubation, the enzyme solution was carefully pipetted off and 500 μL of complete medium were added to each of the remaining DRG. The DRG were in each case suspended several times, drawn through cannulae No. 1, No. 12 and No. 16 using a syringe and transferred to a 50 mL Falcon tube which was filled up to 15 mL with complete medium. […]

In the next test the target is T2, vanilloid receptor (VR1) (Homo sapiens, UniProt Q8NER1).
T2 construct: expressed in transfected cells; host or cells: CHO K1 cells (ECACC), stably transfected
The test can be described thus: Functional testing on vanilloid receptor (VR1): FLIPR Ca2+ inflow assay in CHO K1 cells stably transfected with the VR1 gene. In kind it is cell-based. The settings on record: for inhibition at 10 µM: CHO-K1, inhibition compared to 10 μM CP (capsaicin); for activation at 10 µM: CHO-K1, stimulation compared to 10 μM CP (capsaicin); for IC50: capsaicin (CAP) stimulus, average. From the text:
II. Functional Testing Carried Out on the Vanilloid Receptor (VR1)
The agonistic or antagonistic effect of the substances to be tested can also be determined on the vanilloid receptor (VR1) using the following assay. According to this assay, the Ca^2+ inflow is quantified through the channel using a Ca^2+-sensitive dye (type Fluo-4, Molecular Probes Europe BV, Leiden, Netherlands) in a fluorescent imaging plate reader (FLIPR, Molecular Devices, Sunnyvale, USA).
Chinese hamster ovary cells (CHO K1 cells, European Collection of Cell Cultures (ECACC) United Kingdom) were stably transfected with the VR1 gene. For functional testing, these cells were plated out on poly-D-lysine-coated black 96 well plates having a clear base (BD Biosciences, Heidelberg, Germany) at a density of 25,000 cells/well. The cells were incubated overnight at 37° C. and 5% CO2 in a culture medium (Ham's F12 nutrient mixture, 10% by volume of FCS (foetal calf serum), 18 μg/ml L-proline). The next day the cells were incubated with Fluo-4 (Fluo-4 2 μM, 0.01% by volume of Pluronic F127, Molecular Probes in HBSS (Hank's buffered saline solution), Gibco Invitrogen GmbH, Karlsruhe, Germany) for 30 minutes at 37° C. Subsequently, the plates were washed 3 times with HBSS buffer and after further incubation for 15 minutes at room temperature used for Ca^2+ measurement in a FLIPR assay. The Ca^2+-dependent fluorescence was measured before and after the addition of the substances to be tested (λex wavelength=488 nm, λem=540 nm). Quantification was carried out by measuring the highest fluorescence intensity (FC, Fluorescence Counts) over time.
The FLIPR protocol consists of 2 substance additions. First the compounds to be tested (10 μM) were pipetted onto the cells and the Ca^2+ inflow was compared with the control (capsaicin 10 μM) (% activation based on the Ca^2+ signal after the addition of 10 μM capsaicin). After 5 minutes' incubation, 100 nM of capsaicin were administered and the Ca^2+ inflow was also determined.
Desensitising agonists and antagonists led to suppression of the Ca^2+ inflow. The % inhibition was calculated compared to the maximum achievable inhibition with 10 μM of capsaicin.

T2 sequence (Q8NER1 whole entry): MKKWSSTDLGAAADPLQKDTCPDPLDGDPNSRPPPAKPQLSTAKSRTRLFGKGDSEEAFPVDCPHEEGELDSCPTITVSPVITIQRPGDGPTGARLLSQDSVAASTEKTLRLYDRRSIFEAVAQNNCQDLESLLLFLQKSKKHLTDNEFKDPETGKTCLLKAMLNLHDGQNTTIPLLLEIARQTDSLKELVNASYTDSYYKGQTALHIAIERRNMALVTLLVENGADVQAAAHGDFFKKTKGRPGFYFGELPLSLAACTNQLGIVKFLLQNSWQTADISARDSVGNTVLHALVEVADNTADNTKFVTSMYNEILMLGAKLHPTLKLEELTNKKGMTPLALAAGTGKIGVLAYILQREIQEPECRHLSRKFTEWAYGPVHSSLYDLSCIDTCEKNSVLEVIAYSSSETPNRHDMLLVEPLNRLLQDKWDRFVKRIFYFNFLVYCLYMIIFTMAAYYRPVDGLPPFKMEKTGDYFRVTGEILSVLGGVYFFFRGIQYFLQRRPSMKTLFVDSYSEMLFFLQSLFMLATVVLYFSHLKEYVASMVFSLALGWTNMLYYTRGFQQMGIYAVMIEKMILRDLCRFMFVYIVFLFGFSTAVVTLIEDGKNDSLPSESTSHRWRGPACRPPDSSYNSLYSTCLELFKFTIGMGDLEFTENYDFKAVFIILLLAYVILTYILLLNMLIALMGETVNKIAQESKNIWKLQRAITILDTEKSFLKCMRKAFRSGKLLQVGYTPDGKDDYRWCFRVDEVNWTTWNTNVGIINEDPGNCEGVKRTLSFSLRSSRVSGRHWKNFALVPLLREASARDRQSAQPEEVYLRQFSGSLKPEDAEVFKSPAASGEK
T1 sequence (O35433 whole entry): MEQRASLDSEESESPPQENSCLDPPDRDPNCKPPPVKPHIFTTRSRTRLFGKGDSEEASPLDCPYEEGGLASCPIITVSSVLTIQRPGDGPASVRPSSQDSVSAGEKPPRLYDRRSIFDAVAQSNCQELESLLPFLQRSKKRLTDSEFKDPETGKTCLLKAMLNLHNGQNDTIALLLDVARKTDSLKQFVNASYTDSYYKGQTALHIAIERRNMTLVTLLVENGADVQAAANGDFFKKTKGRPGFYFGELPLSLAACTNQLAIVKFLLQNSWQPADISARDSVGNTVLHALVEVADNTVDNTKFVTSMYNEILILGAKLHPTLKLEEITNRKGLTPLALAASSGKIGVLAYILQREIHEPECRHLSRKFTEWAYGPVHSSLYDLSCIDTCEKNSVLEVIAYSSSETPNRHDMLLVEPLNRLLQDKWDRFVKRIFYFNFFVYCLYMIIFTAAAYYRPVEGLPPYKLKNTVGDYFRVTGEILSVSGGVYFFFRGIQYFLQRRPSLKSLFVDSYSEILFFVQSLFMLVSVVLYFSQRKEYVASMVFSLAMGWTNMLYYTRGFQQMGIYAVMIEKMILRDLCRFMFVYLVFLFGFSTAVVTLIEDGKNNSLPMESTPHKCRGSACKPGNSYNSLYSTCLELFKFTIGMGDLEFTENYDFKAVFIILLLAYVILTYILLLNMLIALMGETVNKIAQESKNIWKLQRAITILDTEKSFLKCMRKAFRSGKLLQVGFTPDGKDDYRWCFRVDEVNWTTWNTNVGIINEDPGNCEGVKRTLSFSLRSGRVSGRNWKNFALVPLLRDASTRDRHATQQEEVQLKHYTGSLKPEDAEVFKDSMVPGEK

Take `COc1cccc(C2=NOC3(CCN(C(=O)Nc4cccc(Br)c4)CC3)C2)c1` [Compound 192, 3-(3-methoxyphenyl)-1-oxa-2,8-diazaspiro[4.5]dec-2-ene-8-carboxylic acid-(3-bromophenyl)amide]: in test [1], the inhibition at 10 µM was determined as 52.1% and the activation at 10 µM was -0.07%. In addition, at vanilloid receptor (VR1), the inhibition at 10 µM was -6.74% and the activation at 10 µM was -0.04%.
In the case of `O=C(C#Cc1ccc(C(F)(F)F)cc1)N1CCC2(CC1)CC(c1ccccc1)=NO2` [Compound 363, 1-(3-phenyl-1-oxa-2,8-diazaspiro[4.5]dec-2-en-8-yl)-3-(4-(trifluoromethyl)phenyl)prop-2-yn-1-one], the values for the inhibition at 10 µM (in test [1]; at vanilloid receptor (VR1)) were 81% and 30%, respectively. For the same compound, the activation at 10 µM (in test [1]; on vanilloid receptor (VR1)) was 0% throughout.
Consider `CC(C)(C)c1ccc(C(/C=C/c2ccccc2)=C/C(=O)N2CCC3(CC2)CC(c2cccc(F)c2)=NO3)cc1` [Compound 358, (2E,4E)-3-(4-tert-butylphenyl)-1-(3-(3-fluorophenyl)-1-oxa-2,8-diazaspiro[4.5]dec-2-en-8-yl)-5-phenylpenta-2,4-dien-1-one], for which, in test [1], 148 nM corresponded to half-maximal inhibition (IC50), the inhibition at 10 µM worked out at 95% and the activation at 10 µM was determined as 0%. On vanilloid receptor (VR1), the inhibition at 10 µM was 41%, the activation at 10 µM amounted to 0% and half-maximal inhibition (IC50) was put at 1110 nM.
With `CC(C)(C)c1ccc(/C=C/C(=O)N2CCC3(CC2)CC(c2cccc(F)c2)=NO3)cc1` [Compound 353, (E)-3-(4-tert-butylphenyl)-1-(3-(3-fluorophenyl)-1-oxa-2,8-diazaspiro[4.5]dec-2-en-8-yl)prop-2-en-1-one], in test [1], the inhibition at 10 µM is 84% and the activation at 10 µM was 0%. Also, on vanilloid receptor (VR1), the inhibition at 10 µM came to 23% and the activation at 10 µM amounted to 0%.
With `CC(C)(C)c1ccc(CCC(=O)N2CCC3(CC2)CC(c2ccccc2)=NO3)cc1` [Compound 350, 3-(4-tert-butylphenyl)-1-(3-phenyl-1-oxa-2,8-diazaspiro[4.5]dec-2-en-8-yl)propan-1-one], in test [1], the inhibition at 10 µM is 81% and the activation at 10 µM turned out to be 1%. Also, on vanilloid receptor (VR1), the inhibition at 10 µM was -4% and the activation at 10 µM is 0%.
Consider `COc1cccc(C2=NOC3(CCN(C(=O)/C=C/c4ccc(C(F)(F)F)nc4N4CCOCC4)CC3)C2)c1` [Compound 342, (E)-1-(3-(3-methoxyphenyl)-1-oxa-2,8-diazaspiro[4.5]dec-2-en-8-yl)-3-(2-morpholino-6-(trifluoromethyl)pyridin-3-yl)prop-2-en-1-one], for which, in test [1], inhibition was half-maximal at 478 nM (IC50), the inhibition at 10 µM stood at 60% and the activation at 10 µM was found to be 0%. Further, on vanilloid receptor (VR1), the inhibition at 10 µM is 53%, the activation at 10 µM amounted to 0% and the IC50 worked out at 1550 nM.
For the compound `CSc1ccccc1NC(=O)N1CCC2(CC1)CC(c1ccc(C(C)(C)C)cc1)=NO2` [Compound 56, 3-(4-tert-butylphenyl)-1-oxa-2,8-diazaspiro[4.5]dec-2-ene-8-carboxylic acid-(2-methylsulphanylphenyl)amide], the results for the inhibition at 10 µM (in test [1]; against vanilloid receptor (VR1)) were 47.3% and 16.4%, respectively. Moreover, the activation at 10 µM was -0.04% in test [1] and -0.22% on vanilloid receptor (VR1).
For `Cc1ccc(C2=NOC3(CCN(C(=O)Nc4ccc(C(C)(C)C)cc4)CC3)C2)cc1` [Compound 144, 3-p-tolyl-1-oxa-2,8-diazaspiro[4.5]dec-2-ene-8-carboxylic acid-(4-tert-butylphenyl)amide] the same measures were 94.5%, -16.6%, -0.43% and -0.18%.
In the case of `CC(C)(C)c1ccc(C=CC(=O)N2CCC3(CC2)CC(c2ccccc2)=NO3)cc1` [Compound 323, 3-(4-tert-butylphenyl)-1-(3-phenyl-1-oxa-2,8-diazaspiro[4.5]dec-2-en-8-yl)propenone], in test [1], the half-inhibitory concentration (IC50) amounted to 181 nM, the inhibition at 10 µM was found to be 98% and the activation at 10 µM is 0%. On vanilloid receptor (VR1), the inhibition at 10 µM is 36%, the activation at 10 µM amounted to 0% and the IC50 worked out at 1440 nM.
In the case of `O=C(/C=C/c1ccc(C(F)(F)F)nc1N1CCCCC1)N1CCC2(CC1)CC(c1ccccc1)=NO2` [Compound 355, (E)-1-(3-phenyl-1-oxa-2,8-diazaspiro[4.5]dec-2-en-8-yl)-3-(2-(piperidin-1-yl)-6-(trifluoromethyl)pyridin-3-yl)prop-2-en-1-one], the inhibition at 10 µM is 98% in test [1] and 63% against vanilloid receptor (VR1). The activation at 10 µM (in test [1]; at vanilloid receptor (VR1)) was 0% in each case.
Turning to `FC(F)(F)c1cccc(NC(=S)N2CCC3(CC2)CC(c2ccccc2)=NO3)c1` [Compound 262, 3-phenyl-1-oxa-2,8-diazaspiro[4.5]dec-2-ene-8-thiocarboxylic acid-(3-trifluoromethylphenyl)amide], the results for the inhibition at 10 µM (in test [1]; on vanilloid receptor (VR1)) were 52.5% and 7.81%, respectively. Further, the activation at 10 µM is -0.54% in test [1] and -0.28% on vanilloid receptor (VR1).
On the same counts, the results for `COc1cccc(C2=NOC3(CCN(C(=O)/C=C/c4ccc(C(F)(F)F)nc4)CC3)C2)c1` [Compound 362, (E)-1-(3-(3-methoxyphenyl)-1-oxa-2,8-diazaspiro[4.5]dec-2-en-8-yl)-3-(6-(trifluoromethyl)pyridin-3-yl)prop-2-en-1-one] are 44%, 19%, -1% and 0%.
`FS(F)(F)(F)(F)c1ccc(NC(=S)N2CCC3(CC2)CC(c2ccccc2)=NO3)cc1` [Compound 330, 3-phenyl-1-oxa-2,8-diazaspiro[4.5]dec-2-ene-8-thiocarboxylic acid-(4-pentafluorosulphanylphenyl)amide]: in test [1], the inhibition at 10 µM turned out to be 103% and the activation at 10 µM is 1%.

As a reminder, the inhibition is the change of the read-out against control, counted positive when it falls. What is called IC50 is the midpoint of a concentration-inhibition curve. Read a high IC50 as lower potency.
